Source: patent US5677309A (priority 1996, dated 1997)
Counter-ions that a name gives are not always drawn.

System: benzodiazepine receptor
Assay: not given
Conditions: Hunkeler et al., 1981; cited from earlier work

With imidazo[1,5-a][1,4]benzodiazepine as the molecule, how does the “inhibition of benzodiazepine and beta-carboline binding” value read?
The value was “high affinity competitive inhibitor”.

System: benzodiazepine receptor
Assay: not given
Conditions: in animals and humans; by itself; cited from earlier work

With imidazo[1,5-a][1,4]benzodiazepine as the molecule, how does the intrinsic pharmacological activity read?
Its intrinsic pharmacological activity is “little intrinsic pharmacological activity”.

Biological target: GABAa receptor (benzodiazepines (BDZ) receptor)
Assay: GABAa receptor (benzodiazepine receptor) binding assay, 3H-RO15-1788 [3H-Flumazenil] displacement in rat cortical tissue
Conditions: 0.5 nM 3H-RO15-1788, 30 min at 4° C., pH 7.4

With O=c1[nH]c2ccccc2c2nn(-c3ccccc3)c(=O)n12 [Compound 1, 2-phenyl-5,6-dihydro-5-oxo-[6H]-1,2,4-triazolo[4,3-c]quinazolin-3-one] as the molecule, how does the Ki read?
The Ki was 5.9 nM.

With O=c1n(-c2ccccc2)nc2n1CNc1ccccc1-2 [Compound 2, 2-phenyl-5,6-dihydro-1,2,4-triazolo[4,3-c]quinazolin-3-one] as the molecule, how does the Ki read?
The Ki was 12 nM.

With O=c1[nH]c2ccccc2c2nn(-c3ccccn3)c(=O)n12 [Compound 5, 2-(2-Pyridyl)-5,6-dihydro-5-oxo-[6H]-1,2,4-triazolo[4,3-c]quinazolin-3-one] as the molecule, how does the Ki read?
Its Ki is 7.6 nM.

For O=c1n(-c2ccccn2)nc2n1CNc1ccccc1-2 [Compound 13, 2-(2-Pyridyl)-5,6-dihydro-1,2,4-triazolo[4,3-c]quinazolin-3-one], which Ki is on record?
Its Ki is 63 nM.

For CN(C)Cc1ccc(-n2nc3n(c2=O)CNc2ccccc2-3)cc1 [Compound 21, 2-[4-(N,N-dimethylaminomethyl)phenyl]-5,6-dihydro-1,2,4-triazolo-[4,3-c]quinazolin-3-one hydrochloride], which Ki is on record?
Its Ki is 53 nM.

With O=c1[nH]c2ccccc2c2nn(-c3ccccc3)c(=S)n12 [Compound 28, 2-phenyl-5,6-dihydro-5-oxo-6[H]-1,2,4-triazolo[4,3-c]quinazolin-3-thione] as the molecule, how does the Ki read?
The Ki was 4.5 nM.

For S=c1n(-c2ccccc2)nc2n1CNc1ccccc1-2 [Compound 29, 2-phenyl-5,6-dihydro-1,2,4-triazolo[4,3-c]quinazolin-3-thione], which Ki is on record?
Its Ki is 636 nM.

For O=c1[nH]c2c(c3nn(-c4ccccc4)c(=O)n13)CCCC2 [Compound 30, 2-phenyl-5,6-dihydro-5-oxo-[6H]-7,8,9,10-tetrahydro-1,2,4-triazolo[4,3-c]-quinazolin-3-one], which Ki is on record?
Its Ki is 4.5 nM.

With O=c1n(-c2ccccc2)nc2n1CNC1=C2CCCC1 [Compound 31, 2-phenyl-5,6,7,8,9,10-hexahydro-1,2,4-triazolo[4,3-c]-quinazolin-3-one] as the molecule, how does the Ki read?
Its Ki is 8 nM.
